Earlier results on one molecule are cited in patent US20070043121A1 (priority 2003, published 2007).

Series [1] concerns sodium channel (3H-batrachotoxin).
For series [2] the following is noted: water.

For `CC(C)c1cccc(C(C)C)c1O` [Propofal, 2,6-diisopropylphenol], the IC50 in series [1] is 26 µM. Also, the aqueous solubility result in series [2] is listed as “very water insoluble”.
